How the values were obtained:
[1] = molecular target: T1, human CD73 (Homo sapiens, UniProt P21589); test: Inhibitor activity against CD73 in cell based assay (CD73 expressing CHO-K1 cells); conditions: CHO-K1 cells expressing human CD73, 150 μM AMP, 4 hours of incubation; read-out: CHO-K1 CELL VARIANT: CD73 IC50
T1 construct: expressed in transfected cells
T1 sequence (P21589 27-549): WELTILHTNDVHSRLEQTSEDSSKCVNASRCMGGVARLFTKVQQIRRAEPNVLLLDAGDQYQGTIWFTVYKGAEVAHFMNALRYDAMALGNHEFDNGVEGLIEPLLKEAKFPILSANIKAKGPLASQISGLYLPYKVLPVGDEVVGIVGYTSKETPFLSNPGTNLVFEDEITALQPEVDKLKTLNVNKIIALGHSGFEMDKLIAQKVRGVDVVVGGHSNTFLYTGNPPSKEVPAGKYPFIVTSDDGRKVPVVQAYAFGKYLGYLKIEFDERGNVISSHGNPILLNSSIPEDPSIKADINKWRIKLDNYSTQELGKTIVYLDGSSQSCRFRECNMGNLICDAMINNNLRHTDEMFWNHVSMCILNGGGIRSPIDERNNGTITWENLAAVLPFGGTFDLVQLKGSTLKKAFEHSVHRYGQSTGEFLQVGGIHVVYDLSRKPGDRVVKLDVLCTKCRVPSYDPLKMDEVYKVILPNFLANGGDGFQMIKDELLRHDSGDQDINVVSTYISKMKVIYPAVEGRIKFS
Outline: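 Residual supernatant AMP was quantified via CellTiter-Glo luminescence (1 μM ATP added, 30 min, room temperature) after a 4 h exposure of human CD73-expressing CHO-K1 cells to 150 μM AMP plus compound, top final 10 μM, 8 points. IC50 came from nonlinear regression of percent inhibition.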

[2] = molecular target: T2, Human CD73 (amino acid residues 27-549) (Homo sapiens, UniProt P21589); test: CD73 enzymatic assay (luciferase-based indirect assay, CellTiter-Glo); format: biochemical; conditions: 0.4 nM CD73, 150 μM AMP, 1 hour at room temperature
T2 construct: Human CD73 (amino acid residues 27-549); His tag (N); made in house; host or cells: E. coli
T2 sequence (P21589 27-549): T1 sequence (P21589 27-549)
Outline: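 Residual AMP inhibits luciferase, so luminescence reports CD73 turnover; read with CellTiter-Glo 2.0 plus 1 μM final ATP, 30 min. Reaction used 0.4 nM N-His CD73 (27-549, E. coli), 150 μM AMP, HEPES pH 7.4 with Tween 20, 1 h at room temperature. IC50 fitted by nonlinear regression.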

O=C(NC1CCN(C(=O)C2CCC2)CC1)O[C@@H]1CCN(c2cn[nH]c(=O)c2Cl)C1 [P-0370, (R)-1-(5-chloro-6-oxo-1,6-dihydropyridazin-4-yl)pyrrolidin-3-yl (1-(cyclobutanecarbonyl)piperidin-4-yl)carbamate]
IC50 [1]: 0.001 to 10 µM | IC50 [2]: 0.001 to 10 µM

O=C(N[C@H]1C[C@H](C(=O)Nc2ccccc2)C1)O[C@@H]1CCN(c2cn[nH]c(=O)c2Cl)C1 [P-0200, (R)-1-(5-chloro-6-oxo-1,6-dihydropyridazin-4-yl)pyrrolidin-3-yl ((1r,3R)-3-(phenylcarbamoyl)cyclobutyl) carbamate]
IC50 [1]: 0.001 to 10 µM | IC50 [2]: 0.001 to 10 µM

N#C[C@H]1CCC[C@H]1NC(=O)O[C@@H]1CCN(c2cn[nH]c(=O)c2Cl)C1 [P-0379, (R)-1-(5-chloro-6-oxo-1,6-dihydropyridazin-4-yl)pyrrolidin-3-yl ((1R,2S)-2-cyanocyclopentyl)carbamate]
IC50 [1]: 0.001 to 10 µM | IC50 [2]: 0.001 to 10 µM

O=C(N[C@@H]1CCC[C@H]1C(F)F)O[C@@H]1CCN(c2cn[nH]c(=O)c2Cl)C1 [P-0509, (R)-1-(5-chloro-6-oxo-1,6-dihydropyridazin-4-yl)pyrrolidin-3-yl ((1R,2R)-2-(difluoromethyl)cyclopentyl) carbamate]
IC50 [1]: 0.001 to 10 µM | IC50 [2]: 0.001 to 10 µM

O=C(N[C@H]1CC[C@@H](C(=O)Nc2ccccc2)CC1)O[C@@H]1CCN(c2cn[nH]c(=O)c2Cl)C1 [P-0183, (R)-1-(5-chloro-6-oxo-1,6-dihydropyridazin-4-yl)pyrrolidin-3-yl ((1s,4S)-4-(phenylcarbamoyl)cyclohexyl) carbamate]
IC50 [1]: 0.001 to 10 µM | IC50 [2]: 0.001 to 10 µM

O=C(NC1CCN(C(=O)Nc2cccc(F)c2)CC1)O[C@@H]1CCN(c2cn[nH]c(=O)c2Cl)C1 [P-0391, (R)-1-(5-chloro-6-oxo-1,6-dihydropyridazin-4-yl)pyrrolidin-3-yl (1-((3-fluorophenyl)carbamoyl)piperidin-4-yl)carbamate]
IC50 [1]: 0.001 to 10 µM | IC50 [2]: 0.001 to 10 µM

O=C(NC1CC2(CCC2)C1)O[C@@H]1CCN(c2cn[nH]c(=O)c2Cl)C1 [P-0115, (R)-1-(5-chloro-6-oxo-1,6-dihydropyridazin-4-yl)pyrrolidin-3-yl spiro[3.3]heptan-2-ylcarbamate]
IC50 [1]: 0.001 to 10 µM | IC50 [2]: 0.001 to 10 µM

O=C(N[C@H]1CC[C@@H](NC2CCCCC2)CC1)O[C@@H]1CCN(c2cn[nH]c(=O)c2Cl)C1 [P-0329, (R)-1-(5-chloro-6-oxo-1,6-dihydropyridazin-4-yl)pyrrolidin-3-yl ((1s,4S)-4-(cyclohexylamino)cyclohexyl) carbamate]
IC50 [1]: 0.001 to 10 µM | IC50 [2]: 0.001 to 10 µM

O=CN[C@H]1CC[C@H](NC(=O)O[C@@H]2CCN(c3cn[nH]c(=O)c3Cl)C2)CC1 [P-0157, (R)-1-(5-chloro-6-oxo-1,6-dihydropyridazin-4-yl)pyrrolidin-3-yl ((1r,4R)-4-formamidocyclohexyl) carbamate]
IC50 [1]: 0.001 to 10 µM | IC50 [2]: 0.001 to 10 µM

CCN(CC)CC(=O)N[C@H]1CC[C@H](NC(=O)O[C@@H]2CCN(c3cn[nH]c(=O)c3Cl)C2)CC1 [P-0269, (R)-1-(5-chloro-6-oxo-1,6-dihydropyridazin-4-yl)pyrrolidin-3-yl ((1r,4R)-4-(2-(diethylamino)acetamido)cyclohexyl)carbamate]
IC50 [1]: 0.001 to 10 µM | IC50 [2]: 0.001 to 10 µM

COC(=O)[C@H]1C[C@H](NC(=O)O[C@@H]2CCN(c3cn[nH]c(=O)c3Cl)C2)C1 [P-0188, methyl (1R,3r)-3-(((((R)-1-(5-chloro-6-oxo-1,6-dihydropyridazin-4-yl)pyrrolidin-3-yl)oxy)carbonyl)amino) cyclobutane-1-carboxylate]
IC50 [1]: 0.001 to 10 µM | IC50 [2]: 0.001 to 10 µM

O=C(NC1CCN(C(=O)Nc2ccc(C(F)(F)F)cc2)CC1)O[C@@H]1CCN(c2cn[nH]c(=O)c2Cl)C1 [P-0389, (R)-1-(5-chloro-6-oxo-1,6-dihydropyridazin-4-yl)pyrrolidin-3-yl (1-((4-(trifluoromethyl)phenyl)carbamoyl)piperidin-4-yl) carbamate]
IC50 [1]: 0.001 to 10 µM | IC50 [2]: 0.001 to 10 µM

CC1(OC(=O)NC2CCC(F)(F)CC2)CCN(c2cn[nH]c(=O)c2Cl)C1 (centres unmarked) [P-0138, 1-(5-chloro-6-oxo-1,6-dihydropyridazin-4-yl)-3-methylpyrrolidin-3-yl (4,4-difluorocyclohexyl)carbamate]
IC50 [1]: 0.001 to 10 µM | IC50 [2]: 0.001 to 10 µM

CO[C@H]1CC[C@H](NC(=O)O[C@@H]2CCN(c3cn[nH]c(=O)c3Cl)C2)CC1 [P-0230, (R)-1-(5-chloro-6-oxo-1,6-dihydropyridazin-4-yl)pyrrolidin-3-yl ((1r,4R)-4-methoxycyclohexyl)carbamate]
IC50 [1]: 0.001 to 10 µM | IC50 [2]: 0.001 to 10 µM

N#Cc1ccc(C(=O)N[C@H]2CC[C@H](NC(=O)O[C@@H]3CCN(c4cn[nH]c(=O)c4Cl)C3)CC2)cc1 [P-0261, (R)-1-(5-chloro-6-oxo-1,6-dihydropyridazin-4-yl)pyrrolidin-3-yl ((1r,4R)-4-(4-cyanobenzamido)cyclohexyl) carbamate]
IC50 [1]: 0.001 to 10 µM | IC50 [2]: 0.001 to 10 µM

Cn1cc(S(=O)(=O)N[C@H]2CC[C@H](NC(=O)O[C@@H]3CCN(c4cn[nH]c(=O)c4Cl)C3)CC2)cn1 [P-0255, (R)-1-(5-chloro-6-oxo-1,6-dihydropyridazin-4-yl)pyrrolidin-3-yl ((1r,4R)-4-((1-methyl-1H-pyrazole)-4-sulfonamido)cyclohexyl) carbamate]
IC50 [1]: 0.001 to 10 µM | IC50 [2]: 0.001 to 10 µM

O=C(NC1CCOCC1)O[C@@H]1CCN(c2cn[nH]c(=O)c2Cl)C1 [P-0097, (R)-1-(5-chloro-6-oxo-1,6-dihydropyridazin-4-yl)pyrrolidin-3-yl (tetrahydro-2H-pyran-4-yl)carbamate]
IC50 [1]: 0.001 to 10 µM | IC50 [2]: 0.001 to 10 µM

CS(=O)(=O)N[C@H]1CC[C@H](NC(=O)O[C@@H]2CCN(c3cnn(CCO)c(=O)c3Cl)C2)CC1 [P-0334, (R)-1-(5-chloro-1-(2-hydroxyethyl)-6-oxo-1,6-dihydropyridazin-4-yl)pyrrolidin-3-yl ((1r,4R)-4-(methylsulfonamido)cyclohexyl)carbamate]
IC50 [1]: 0.001 to 10 µM | IC50 [2]: 0.001 to 10 µM

O=C(N[C@H]1CC[C@H](NS(=O)(=O)c2cccc(F)c2)CC1)O[C@@H]1CCN(c2cn[nH]c(=O)c2Cl)C1 [P-0294, (R)-1-(5-chloro-6-oxo-1,6-dihydropyridazin-4-yl)pyrrolidin-3-yl ((1r,4R)-4-((3-fluorophenyl)sulfonamido)cyclohexyl)carbamate]
IC50 [1]: 0.001 to 10 µM | IC50 [2]: 0.001 to 10 µM

CC(C)NC(=O)N[C@H]1CC[C@H](NC(=O)O[C@@H]2CCN(c3cn[nH]c(=O)c3Cl)C2)CC1 [P-0320, (R)-1-(5-chloro-6-oxo-1,6-dihydropyridazin-4-yl)pyrrolidin-3-yl ((1r,4R)-4-(3-isopropylureido)cyclohexyl) carbamate]
IC50 [1]: 0.001 to 10 µM | IC50 [2]: 0.001 to 10 µM

O=C(NC1CCS(=O)(=O)C1)N[C@@H]1CCN(c2cn[nH]c(=O)c2Cl)C1 (stereo partly drawn) [P-0054, 1-((R)-1-(5-chloro-6-oxo-1,6-dihydropyridazin-4-yl)pyrrolidin-3-yl)-3-(1,1-dioxidotetrahydrothiophen-3-yl)urea]
IC50 [1]: 10 to 100 µM | IC50 [2]: 0.001 to 10 µM

O=C(N[C@H]1CC[C@H](NS(=O)(=O)C2CC2)CC1)O[C@@H]1CCN(c2cn[nH]c(=O)c2Cl)C1 [P-0152, (R)-1-(5-chloro-6-oxo-1,6-dihydropyridazin-4-yl)pyrrolidin-3-yl ((1r,4R)-4-(cyclopropanesulfonamido)cyclohexyl)carbamate]
IC50 [1]: 0.001 to 10 µM | IC50 [2]: 0.001 to 10 µM
